Structures can show the parent of a compound that is named as a salt.

In the first assay the target is T1, Cloned Neurokinin Receptor Subtype 2 Human (Homo sapiens, UniProt P21452).
T1 construct: purchased Biosignal Packard; host or cells: CHO cells
T1 sequence (P21452 1-398): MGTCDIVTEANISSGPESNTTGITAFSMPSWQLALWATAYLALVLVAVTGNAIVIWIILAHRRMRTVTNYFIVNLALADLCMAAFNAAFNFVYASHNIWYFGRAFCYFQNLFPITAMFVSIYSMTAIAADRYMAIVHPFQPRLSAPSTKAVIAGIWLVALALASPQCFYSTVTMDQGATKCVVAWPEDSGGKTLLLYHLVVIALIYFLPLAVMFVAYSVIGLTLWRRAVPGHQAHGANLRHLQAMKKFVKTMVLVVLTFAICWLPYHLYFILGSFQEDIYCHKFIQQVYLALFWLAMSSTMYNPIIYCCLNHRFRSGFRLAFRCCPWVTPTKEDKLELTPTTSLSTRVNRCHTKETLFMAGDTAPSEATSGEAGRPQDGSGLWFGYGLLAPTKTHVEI
Kind of assay: NK-2 receptor-binding experiment ([3H]-SR48968, CHO cell membranes). The note with it: Table 3; inhibition of [3H]-SR48968 (0.85 nM) binding, pseudo-Hill analysis. How it is done:
2. NK-2 Receptor-binding Experiment
Cloned Neurokinin Receptor Subtype 2 Human (CHO cells, Biosignal Packard), [^3H]-SR48968 (Amersham, final concentration 0.85 nM), and a test compound were mixed with 20 mM HEPES buffer, and the mixture was incubated for 50 minutes at 27° C. After completion of incubation, membrane components were collected by means of an automatic filtration apparatus (Brandel) onto a GF/C glass fiber filter (Whatman).
Before use, in order to prevent non-specific binding, the glass fiber filter had been pre-treated with 0.1% polyethylene imine solution for about 4 hours.
The filter employed to collect the membrane components was transferred to a plastic vial containing UltimaGold MV (5 mL), and measured by means of a liquid scintillation counter (Packard, 2000CA) in terms of the radioactivity.
(§1) Percent radioactive ligand-receptor binding inhibition of each test compound was calculated by use of the following equation, and IC50 (nM) was determined through pseudo-Hill analysis.
(§2) Percent inhibition (%)=[1−(C−A)/(B−A)]×100
(§3) A: Radioactivity attributed to non-specific binding
(§4) B: Radioactivity without test compound
(§5) C: Radioactivity with test compound
As to `CC(C)C(=O)N(C)C[C@](CCN1CCC2(CC1)c1ccccc1C[S@+]2[O-])(c1ccc(Cl)c(Cl)c1)N(C)C(=O)C(=O)N(C)c1ccccc1` [Compound No. 33, N^1-{1-(N-methylisobutylamide)-2-(S)-(3,4-dichlorophenyl)-4-[spiro(benzo(c)thiophene-(2S)-oxido-1(3H), 41-piperidin)-1′-yl]butan-2-yl}-N^1,N^2-dimethyl-N^2-phenyloxalamide hydrochloride], the IC50 came out at 0.65 nM.

In the case of `CN(CC(CCN1CCC2(CC1)NC(=O)Cc1ccccc12)(c1ccc(Cl)c(Cl)c1)N(C)C(=O)NC(c1ccccc1)c1ccccc1)C(=O)C(F)(F)F` (stereo not drawn) [Compound No. 3, N-{2-(3-benzhydryl-1-methylureido)-2-(3,4-dihydrodichlorophenyl)-4-{spiro[isoquinoline-1(2H),4′-piperidine]-3(4H)-one}-1′-yl-butyl}-2,2,2-trifluoro-N-methyl-acetamide hydrochloride], the IC50 came out at 1.7 nM.

`CCN(C(=O)C(=O)N(C)[C@](CCN1CCC2(CC1)NC(=O)Cc1ccccc12)(CN(C)C(=O)CC(F)(F)F)c1ccc(Cl)c(Cl)c1)c1ccccc1` [Compound No. 41, N^1-{1-(3,3,3-trifluoro-N-methylpropanamido)-2-(S)-(3,4-dichlorophenyl)-4-[3-oxo-3,4-dihydro-2H-spiro(isoquinoline-1,4′-piperidin)-1′-yl]butan-2-yl}-N^1-methyl-N^2-ethyl-N^2-phenyloxalamide hydrochloride] registered an IC50 of 0.84 nM.

`CN(CC(CCN1CCC2(CC1)c1ccccc1C[S@+]2[O-])(c1ccc(Cl)c(Cl)c1)N(C)C(=O)C(=O)N(C)c1ccccc1)C(=O)CC(F)(F)F` (single isomer, unassigned) [Compound No. 10] registered an IC50 of 4.1 nM.

`CN(CC(CCN1CCC2(CC1)c1ccccc1C[S+]2[O-])(c1ccc(Cl)c(Cl)c1)N(C)C(=O)c1ccccc1)C(=O)CC(F)(F)F` [Compound No. 13, N-{1-(3,4-Dichloro-phenyl)-1-{[methyl-(3,3,3-trifluoro-propionyl)-amino]-methyl}-3-{spiro[benzo(c)thiophene-1(3H),4′-piperidine]-(2S)-oxido}-1′-yl-propyl}-N-methyl-benzamide hydrochloride]: the IC50 is 2.6 nM.

In turn, `CCN(C(=O)C(=O)N(C)[C@](CCN1CCC2(CC1)c1ccccc1C[S@+]2[O-])(CN(C)C(=O)C(C)C)c1ccc(Cl)c(Cl)c1)c1ccccc1` [Compound No. 39, N^1-{1-(N-methylisobutylamide)-2-(S)-(3,4-dichlorophenyl)-4-[spiro(benzo(c)thiophene-(2S)-oxido-1(3H),4′-piperidin)-1′-yl]butan-2-yl}-N^1-methyl-N^2-ethyl-N^2-phenyloxalamide hydrochloride] registered an IC50 of 1 nM.

For the compound `CC(C)C(=O)N(C)C[C@](CCN1CCC2(CC1)c1ccccc1C[S@+]2[O-])(c1ccc(Cl)c(Cl)c1)N(C)C(=O)c1ccccc1` [Compound No. 32, N-{1-(N-methylisobutylamide)-2-(S)-(3,4-dichlorophenyl)-4-[spiro(benzo(c)thiophene-(2S)-oxido-1(3H),4′-piperidin)-1′-yl]butan-2-yl}-N-methylbenzamide hydrochloride], the IC50 worked out at 1 nM.

`CCN(C(=O)C(=O)N(C)[C@](CCN1CCC2(CC1)c1ccccc1C[S@+]2[O-])(CN(C)C(=O)C(C)(C)C)c1ccc(Cl)c(Cl)c1)c1ccccc1` [Compound No. 37, N^1-{[1-(N-methyl-trimethylacetamide)-2-(S)-(3,4-dichlorophenyl)-4-[spiro(benzo(c)thiophene-(2S)-oxido-1(3H),4′-piperidin)-1′-yl]butan-2-yl}-N^1-methyl-N^2-ethyl-N^2-phenyloxalamide hydrochloride]: the IC50 is 1.8 nM.

Consider `CN(C[C@](CCN1CCC2(CC1)c1ccccc1CS2(=O)=O)(c1ccc(Cl)c(Cl)c1)N(C)C(=O)Cc1ccccc1)C(=O)CC(F)(F)F` [Compound No. 28, N-(1-(3,3,3-trifluoro-N-methylpropanamido)-2-(S)-(3,4-dichlorophenyl)-4-[spiro(benzo(c)thiophene-2,2-dioxido-1(3H),4′-piperidin)-1′-yl]butan-2-yl}-N-methyl-phenylacetamide hydrochloride], for which the IC50 worked out at 2.6 nM.

Another assay deals with NK-1 receptor (Homo sapiens, UniProt P25103). Kind of assay: NK-1 receptor-binding test ([3H]-Substance P, hNK1-CHO cells). The arrangement: expressed in transfected cells; host or cells: CHO-K1 cells (ATCC: CCL-61), G418-resistant, hNK1-CHO.
Sequence of NK-1 receptor (P25103 whole entry): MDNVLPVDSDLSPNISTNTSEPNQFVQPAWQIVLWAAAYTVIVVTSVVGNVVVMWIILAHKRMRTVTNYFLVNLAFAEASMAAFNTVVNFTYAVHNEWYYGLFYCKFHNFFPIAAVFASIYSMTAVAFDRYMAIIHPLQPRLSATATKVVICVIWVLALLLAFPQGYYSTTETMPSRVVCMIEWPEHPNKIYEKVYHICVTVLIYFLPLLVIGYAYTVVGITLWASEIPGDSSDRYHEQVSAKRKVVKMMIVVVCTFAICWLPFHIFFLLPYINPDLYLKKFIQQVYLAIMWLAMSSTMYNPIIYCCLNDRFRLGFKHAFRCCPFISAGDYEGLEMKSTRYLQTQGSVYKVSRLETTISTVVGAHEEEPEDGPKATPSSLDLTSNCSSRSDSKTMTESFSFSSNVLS
Conditions: not given
The method, then:
1. NK-1 Receptor-binding Test
1) Preparation of Human NK-1 Receptor Expression Cells
FuGene 6 transfection reagent (Boegringer Mannheim) (3 μL) was diluted in an F-12 culture broth (97 μL), and pCR3.1 plasmid to which human NK-1 receptor cDNA had been introduced (Invitrogen) (10 μL) was added thereto. The mixture was mixed and incubated for 15 minutes (transfection reagent). CHO-K1 cells (ATCC: CCL-61) were cultured for 24 hours, and the whole reagent prepared above was added to the cultured CHO-K1 cells ([…]). Subsequently, culture was performed in the presence of G418 (Stratagene), and the resistant cells were employed as cells into which human NK-1 receptor gene was introduced (hNK1-CHO).
2) Subcultivation of hNK1-CHO Cells
The hNK1-CHO cells were treated with trypsin-EDTA and subcultivated in an F-12 culture broth (containing 10% fetal bovine serum, 10 mM HEPES, 100 U/mL, penicillin, 100 μg/mL streptmycin, 400 μg/mL G418) in a 75-cm^2 flask (FALCON). Cells to be employed in the receptor-binding experiment were added to a 24-well plate (IWAKI) at 1×10^5 cells/well, and subcultured for 48 hours at 37° C. under 95% […] and 5% CO2.
3) Receptor-binding Experiment
When the hNK1-CHO cells became subconfluent on the 24-well plate, an F-12 culture broth (containing 10 mM HEPES and 0.1% fetal bovine serum) (450 μL), [^3H]-Substance P (Amersham, final concentration 0.5 nM), and a test compound were added to the cells, and the mixture was incubated for 40 minutes at 37° C. For the measurement of non-specific binding, L703606 (Sigma) was added instead of the test compound. After completion of incubation, the mixture was washed with ice-cooled phosphate buffered saline containing 0.1% fetal bovine serum, and the cells were lysed with 1N NaOH (0.5 mL). The lysate was transfered to a plastic vial containing UltimaGold MV (5 mL), and the radioactivity was determined by means of a liquid liquid scintillation counter (Packard, 2000CA).
as §1, §2, §3, §4, §5
Turning to `CN(C[C@](CCCN1CCC2(CC1)c1ccccc1C[S@+]2[O-])(c1ccc(Cl)c(Cl)c1)N(C)C(=O)Oc1ccccc1F)C(=O)CC(F)(F)F` [Compound No. 638, 2-fluorophenyl{1-(3,3,3-trifluoro-N-methylpropanamido)-2-(S)-(3,4-dichlorophenyl)-5-[spiro(benzo(c)thiophene-(2S)-oxido-1(3H),4′-piperidin)-1′-yl]pentan-2-yl}methylcarbamate hydrochloride], the IC50 was found to be 6 nM.

`CN(C[C@](CCCN1CCC2(CC1)c1ccccc1C[S@+]2[O-])(c1ccc(Cl)c(Cl)c1)N(C)C(=O)Oc1ccccc1)C(=O)C(F)(F)F` [Compound No. 642, phenyl{1-(2,2,2-trifluoro-N-methylacetamide)-2-(S)-(3,4-dichlorophenyl)-5-[spiro(benzo(c)thiophene-(2S)-oxido-1(3H),4′-piperidin)-1′-yl]pentan-2-yl}methylcarbamate hydrochloride]: the IC50 came out at 3.7 nM.

With `Cc1ccc(OC(=O)N(C)[C@](CCCN2CCC3(CC2)c2ccccc2C[S@+]3[O-])(CN(C)C(=O)CC(F)(F)F)c2ccc(Cl)c(Cl)c2)cc1` [Compound No. 652, 4-tolyl{1-(3,3,3-trifluoro-N-methylpropanamido)-2-(S)-(3,4-dichlorophenyl)-5-[spiro(benzo(c)thiophene-(2S)-oxido-1(3H),4′-piperidin)-1′-yl]pentan-2-yl}methylcarbamate hydrochloride], the IC50 was found to be 2.7 nM.

The same assay, now with this note: Table 2; inhibition of [3H]-Substance P (0.5 nM) binding to hNK1-CHO cells, pseudo-Hill analysis; read-out: NK-1.
As to `COc1cc(COC[C@](CCCN2CCC3(CC2)c2ccccc2C[S@+]3[O-])(c2ccc(Cl)c(Cl)c2)N(C)C(=O)Nc2cccc(F)c2)cc(OC)c1OC` [Compound No. 615, 1-{1-(3,4,5-trimethoxybenzyloxy)-2-(S)-(3,4-dichlorophenyl)-5-[spiro(benzo(c)thiophene-(2S)-oxido-1(3H),4′-piperidin)-1′-yl]pentan-2-yl}-3-(3-fluorophenyl)-1-methylurea hydrochloride], the IC50 came to 0.58 nM.

Turning to `COc1cc(COC[C@](CCCN2CCC3(CC2)c2ccccc2C[S@+]3[O-])(c2ccc(Cl)c(Cl)c2)N(C)C(=O)Nc2cccc(C(F)(F)F)c2)cc(OC)c1OC` [Compound No. 616, 1-{1-(3,4,5-trimethoxybenzyloxy)-2-(S)-(3,4-dichlorophenyl)-5-[spiro(benzo(c)thiophene-(2S)-oxido-1(3H),4′-piperidin)-1′-yl]pentan-2-yl}-3-[3-(trifluoromethyl)phenyl]-1-methylurea hydrochloride], the IC50 was found to be 2 nM.

As to `COc1cc(COC[C@](CCCN2CCC3(CC2)c2ccccc2C[S@+]3[O-])(c2ccc(Cl)c(Cl)c2)N(C)C(=O)NC2CCCCC2)cc(OC)c1OC` [Compound No. 599, 1-{1-(3,4,5-trimethoxybenzyloxy)-2-(S)-(3,4-dichlorophenyl)-5-[spiro(benzo(c)thiophene-(2S)-oxido-1(3H),4′-piperidin)-1′-yl]pentan-2-yl}-3-cyclohexyl-1-methylurea hydrochloride], the IC50 came out at 0.73 nM.

Source of the values: patent US7276511B2, “Benzylamine derivative” (Zeria Pharmaceutical Co., Ltd., priority 2003, dated 2007).
